Reference: patent publication EP0186181A2, “Uses for enprostil” (SYNTEX (U.S.A.) INC., priority 1984, dated 1986)
Read-outs that look alike come from different tables or passages of the source.

How the values were obtained:
insulin levels = settings: cited from earlier work
[1] = tested on: serum insulin and glucose; experiment: Serum insulin and glucose after meal, double blind crossover study (Example V); format: in vivo, human; settings: orally 30 minutes before meal
Experimental: A group of 10 subjects participated in a double blind crossover study. Either a placebo or enprostil was orally given 30 minutes before meal time and levels of insulin and glucose were measured after the meal.

serum xylose = experiment: Oral d-xylose absorption, 10-day placebo controlled cross-over (Example VII); format: in vivo, human; settings: 70 µg enprostil per day, 5 g d-xylose orally
Experimental: (§1) 10 normal subjects participated in a 10-day placebo controlled cross-over receiving either placebo or […] enprostil per day. On day 1 and day 9 of each study phase they orally received 5 g of d-xylose, a sugar not normally metabolized in man. Blood measurements for serum xylose were made at -30, 0, +30, 60, 120, 180, 240, and 300 minutes following ingestion of xylose. On day 2 and day 10 of each study phase, the subjects received a 25 g intravenous glucose tolerance test, 30 minutes following enprostil administration.

[2] = tested on: serum insulin and glucose; experiment: Eight-day crossover study with standard breakfast: serum glucose, insulin, GIP (Example VI); format: in vivo, human; settings: 70 µg orally
Experimental: Eight healthy male subject received either 70 µg enprostil per day or placebo for eight days followed by a washout period of one week and a subsequent second eight-day administration during which they received the opposite drug regime.
On day 1 and day 8 of each study period the patients reported to the clinical studies unit fasting and were administered 70 µg of enprostil orally in a glass of water. Thirty minutes later they were administered a standard breakfast and blood samples were drawn at -30, just prior to enprostil administration, 0, at the time of enprostil administration, 15, 30, 60, 90, 120 and 180 minutes.

serum cholesterol [3] = experiment: 44 day dosing placebo controlled trial, serum cholesterol (Example III); format: in vivo, human
Experimental: In a 44 day dosing study 20 subject participated in a placebo controlled trial. Ten subjects received enprostil and the remainder received placebo. […] Similarly there was a 46% reduction in their LDL cholesterol from 140 mg/dl to 75 mg/dl. This subject was normocholesterolemic at baseline and no dietary manipulation was attempted.

serum cholesterol [4] = experiment: Cholesterol reduction study, 7 to 70 µg BID versus placebo (Example II, Table 1); format: in vivo, human
serum glucose [5] = experiment: 25 g intravenous glucose tolerance test (Example VII); format: in vivo, human; settings: 30 minutes following enprostil administration, day 2 and day 10
Experimental: as §1

serum glucose [6] = experiment: Serum glucose after standard breakfast, study lasting up to 44 days (Example VIII); format: in vivo, human; settings: 35 µg BID, standard breakfast 30 minutes after dose
Experimental: 20 subjects participated in a study lasting up to 44 days. On day -8, all 20 subjects received a placebo capsule followed 30 minutes later by a standard breakfast with serial blood measurements. Eight days later all 20 subjects were randomized to either enprostil […] BID or placebo and continued dosing for a period of 30 days. On days 1, 8, and 30, they were given enprostil followed 30 minutes later by a standard breakfast with serial blood measurements.

serum GIP = experiment: Serum GIP after meal stimulus, double blind crossover study (Example IV); format: in vivo, human; settings: 70 µg orally 30 minutes before meal; placebo showed a four fold increase
Experimental: Serum GIP levels are known to increase after meals.
Groups of 10 subjects participated in a double blind, crossover study. Either the placebo or 70 µg enprostil was orally given 30 minutes before meal time and levels of GIP were measured.

serum cholesterol [7] = experiment: Effect of orally administered enprostil on serum cholesterol, five weeks (Example I); format: in vivo, human
Experimental: A group of 20 patients with high cholesterol baseline were orally given 70 µg enprostil twice daily. […] The median change for the group was 16 percent reduction, with 60 percent of the patients tested showing a significant reduction in serum cholesterol.
A second group of 16 patients with a high cholesterol baseline were given 35 µg enprostil twice daily.
A third group of 13 individuals were given a placebo. […] The median change was a 2 percent increase in cholesterol.

[8] = tested on: serum cholesterol, LDL cholesterol, HDL cholesterol, apoproteins; experiment: 9-day placebo controlled cross-over study in normal subjects: cholesterol, LDL, HDL, apoproteins (Table 2); format: in vivo, human; design: Mean reduction of cholesterol / Mean reduction of LDL cholesterol / Mean reduction of HDL cholesterol / Mean reduction of apoprotein A / Mean reduction of apoprotein B: concentration or dose not given beside the values; settings: 9-day cross-over
Experimental: To further clarify the nature of these changes in a prospective manner, normal subjects were dosed with enprostil for periods ranging from 8 days up to 44 days in duration.
In a 9-day placebo controlled cross-over study, with each subject serving as their own control, the mean reduction in cholesterol, Low Density Lipoprotein (LDL) cholesterol, and High Density Lipoprotein (HDL) cholesterol are shown in Table 2.
These findings are surprising since the subjects in this study were normocholesterolemic at baseline (that is serum cholesterol under 250 mg/dl) and were on a free diet with no attempt to regulate dietary cholesterol intake.

[9] = administered by tube to the duodenum
[10] = of nine subjects who received enprostil
[11] = subject number 120, from 140 mg/dl
[12] = 35 µg twice daily, of 16 patients
[13] = 70 µg twice daily, of 20 patients
[14] = normocholesterolemic subjects, free diet

In the case of CCCCC[C@](C)(O)/C=C/[C@H]1[C@H](O)CC(=O)[C@@H]1C/C=C\CCCC(=O)OC [15S, 15 methyl PGE2 methyl ester], the insulin levels (insulin levels; [9]) is listed as “lowered insulin levels”, the serum glucose levels (insulin levels; [9]) is listed as “no change” and the “time to peak serum glucose levels” value (insulin levels; intraduodenally or intravenously) is listed as “no change”. For the same compound, the glucose levels (insulin levels; intravenous administration) was “without affecting glucose levels” and the insulin levels (insulin levels; intravenous administration) was “lowered insulin levels”.

In the case of COC(=O)CCC=C=CC[C@H]1C(=O)C[C@@H](O)[C@@H]1/C=C/[C@@H](O)COc1ccccc1 [enprostil], the “raise in glucose levels after the meal” value [1] is reported as “no statistically or clinically significant raise”, the “increase of insulin levels after the meal” value ([1]; placebo five fold) is reported as “two” and the “reduction in the amount of xylose excreted over 5 hours” value (serum xylose) is reported as 30%. For the same compound, the “peak serum xylose levels” value (serum xylose; days 1 and 9) was “marked suppression and delay”, the “amount of xylose excreted over 5 hours” value (serum xylose; versus 1.8g) was 1.3 g and the “serum GIP” value ([2]; both study days) was “essentially complete inhibition”. The “serum insulin concentrations for each time point” value ([2]; day 1 and 8) was “marked reduction”, the “reduction of area under the serum glucose by time curve compared to the placebo phase” value ([2]; day 1 and day 8) was 15-20% and the “number of individuals with a reduction in total and LDL cholesterol throughout the entire 44 day period” value (serum cholesterol [3]; [10]) was “Three”. For the same compound, the “number of subjects showing a reduction of total cholesterol by 16 days” value (serum cholesterol [3]; [10]) was “Six”, the “reduction of total serum cholesterol” value (serum cholesterol [3]; subject number 120, day 44 versus mean baseline of 208 mg/dl) was 43% and the “LDL cholesterol after dosing” value (serum cholesterol [3]; [11]) was 75 mg/dL. For the same compound, the “reduction in LDL cholesterol” value (serum cholesterol [3]; [11]) was 46%, the “total serum cholesterol at day 44” value (serum cholesterol [3]; subject number 120, mean baseline 208 mg/dl) was 123 mg/dL and the “Cholesterol % decrease (combined 2-12 week of dosing)” value (“Cholesterol % decrease” below) (serum cholesterol [4]; 7 µg BID, 9 subjects) was 67%. The “Median % change (cholesterol)” value (serum cholesterol [4]; 7 µg BID, 9 subjects) was -11%, the “Cholesterol % decrease” value (serum cholesterol [4]; 35 µg BID, 28 subjects) was 64% and the “Median % change (cholesterol)” value (serum cholesterol [4]; 35 µg BID, 28 subjects) was -13%. For the same compound, the “Cholesterol % decrease” value (serum cholesterol [4]; 70 µg BID, 28 subjects) was 64%, the “Median % change (cholesterol)” value (serum cholesterol [4]; 70 µg BID, 28 subjects) was -17% and the “serum glucose by time curves following intravenous glucose administration, versus placebo” value (serum glucose [5]) was “no marked differences”. For the same compound, the “peak blood glucose levels versus placebo” value (serum glucose [6]) was “substantially reduced”, the “time of appearance of peak blood glucose levels” value (serum glucose [6]; delay from approximately 60 minutes) was about 90 min and the “increase in serum GIP 60 minutes after the meal stimulus” value (serum GIP) was “no increase”. For the same compound, the “patients showing serum cholesterol reduction” value (serum cholesterol [7]; 35 µg twice daily, 16 patients) was 56%, the “median change (reduction in serum cholesterol)” value (serum cholesterol [7]; 35 µg twice daily, 16 patients with high cholesterol baseline) was “eleven” and the “number of patients showing greater than 10 percent serum cholesterol reduction” value (serum cholesterol [7]; [12]) was “eight”. The “number of patients showing greater than 25 percent reduction in serum cholesterol” value (serum cholesterol [7]; [12]) was “one”, the “number of patients showing no change in serum cholesterol” value (serum cholesterol [7]; [12]) was “seven” and the “patients tested showing a significant reduction in serum cholesterol” value (serum cholesterol [7]; 70 µg twice daily orally, 20 patients) was 60%. For the same compound, the “median change for the group (reduction in serum cholesterol)” value (serum cholesterol [7]; 70 µg twice daily orally, 20 patients with high cholesterol baseline) was 16%, the “number of patients showing greater than 10 percent reduction in serum cholesterol” value (serum cholesterol [7]; [13]) was “eleven” and the “number of patients showing greater than 25 percent reduction in serum cholesterol” value (serum cholesterol [7]; [13]) was “one”. The “number of patients showing no change in serum cholesterol” value (serum cholesterol [7]; [13]) was “eight”, the “change in total triglycerides” value [8] was “essentially no change” and the “Mean reduction of HDL cholesterol” value [8, 14] was -9.2%. For the same compound, the “Mean reduction of LDL cholesterol” value [8, 14] was -21.0%, the “Mean reduction of apoprotein A” value [8, 14] was -1.8% and the “Mean reduction of apoprotein B” value [8, 14] was -16.0%. For the same compound, the “Mean reduction of cholesterol” value [8, 14] was -15.0%.
